Reference: the supplement of paper PMC11061612

Experiments:
Assay in all cases: Bliss excess, mean over the matrix (fraction); higher = more synergy
[1] = tested on: CAL-120 (Breast Carcinoma)
In short: (§1)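 Cell lines in DMEM/F12 or RPMI with 10% FBS were plated in 1536-well plates, held 24 hours at 37°C, 5% CO2, then given two-drug dose matrices for 72 hours (DMSO typically 0.2%). Viability was read by CellTiter-Glo 2.0 luminescence and scaled as inhibition from 0 (vehicle wells) to 1 (blank wells). Combination Emax is the second-highest inhibition in the matrix; Bliss excess is observed combination effect minus expected EA + EB − EA·EB, EA and EB being single-agent effects.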

WM278 (Melanoma) = tested on: WM278 (Melanoma)
In short: as §1

[2] = tested on: RCM-1 (Colorectal Carcinoma)
In short: as §1

GB-1 (Glioblastoma) = tested on: GB-1 (Glioblastoma)
In short: as §1

[3] = tested on: OVMIU (Ovarian Carcinoma)
In short: as §1

[4] = tested on: CAL-62 (Thyroid Gland Carcinoma)
In short: as §1

[5] = tested on: LXF-289 (Lung Adenocarcinoma)
In short: as §1

[6] = tested on: REH (B-Lymphoblastic Leukemia)
In short: as §1

[7] = tested on: RERF-GC-1B (Gastric Carcinoma)
In short: as §1

[8] = tested on: HSC-39 (Gastric Carcinoma)
In short: as §1

[9] = tested on: SU-DHL-10 (B-Cell Non-Hodgkin's Lymphoma)
In short: as §1

[10] = tested on: OPM-2 (Plasma Cell Myeloma)
In short: as §1

[11] = tested on: VAL (B-Cell Non-Hodgkin's Lymphoma)
In short: as §1

[12] = tested on: PSN1 (Pancreatic Carcinoma)
In short: as §1

[13] = tested on: LB996-RCC (Kidney Carcinoma)
In short: as §1

[14] = tested on: HCT-15 (Colorectal Carcinoma)
In short: as §1

[15] = tested on: L-1236 (Hodgkin's Lymphoma)
In short: as §1

[16] = tested on: RKN (Other Solid Carcinomas)
In short: as §1

[17] = tested on: TE-8 (Esophageal Squamous Cell Carcinoma)
In short: as §1

[18] = tested on: 23132-87 (Gastric Carcinoma)
In short: as §1

Compound | Bliss excess [1] | Bliss excess (WM278 (Melanoma)) | Bliss excess [2] | Bliss excess (GB-1 (Glioblastoma)) | Bliss excess [3] | Bliss excess [4] | Bliss excess [5] | Bliss excess [6] | Bliss excess [7] | Bliss excess [8] | Bliss excess [9] | Bliss excess [10] | Bliss excess [11] | Bliss excess [12] | Bliss excess [13] | Bliss excess [14] | Bliss excess [15] | Bliss excess [16] | Bliss excess [17] | Bliss excess [18]
COc1cccc(OCCCN)c1-c1cc(Nc2cnc(C#N)cn2)n[nH]1 [Prexasertib] + CN(C)CCCOc1ccc(-c2ccc3ncc4c(c3c2)n(C2CCOCC2)c(=O)n4C)cn1 [AZD0156] (first compound max 1 µM, 7x7, partner max 1 µM) | 0.0088 | 0.0128 | -0.0358 | -0.0079 | -0.0012 | -0.0364 | 0.0113 | 0.0171 | 0.0049 | -0.0196 | -0.049 | 0.0204 | -0.0162 | -0.0038 | 0.0028 | 0.0607 | -0.0649 | -0.0478 | -0.0033 | -0.0009
COc1cccc(OCCCN)c1-c1cc(Nc2cnc(C#N)cn2)n[nH]1 [Prexasertib] + C[C@@H]1COCCN1C2=NC(=NC(=C2)C3(CC3)[S@](=N)(=O)C)C4=C5C=CNC5=NC=C4 [AZD6738] (first compound max 1 µM, 7x7, partner max 10 µM) | 0.0093 | -0.0364 | -0.0307 | -0.0337 | 0.0388 | -0.005 | -0.0228 | 0.0032 | -0.119 | -0.0067 | -0.0067 | -0.0663 | -0.0637 | 0.0334 | 0.0355 | 0.0391 | -0.0199 | -0.027 | -0.0122 | -0.0085
COc1cccc(OCCCN)c1-c1cc(Nc2cnc(C#N)cn2)n[nH]1 [Prexasertib] + Cc1cc2ncnn2cc1Nc1ncc2c(n1)n(C1CCOCC1)c(=O)n2C [AZD7648] (first compound max 1 µM, 7x7, partner max 10 µM) | 0.0045 | -0.009 | -0.0166 | 0.0387 | -0.0211 | -0.0128 | -0.0006 | -0.0041 | 0.0015 | 0.008 | -0.045 | -0.0341 | -0.0204 | 0.0106 | 0.0292 | -0.0449 | -0.046 | -0.0293 | -0.0448 | -0.0365
COc1cccc(OCCCN)c1-c1cc(Nc2cnc(C#N)cn2)n[nH]1 [Prexasertib] + O=C(c1cc(Cc2n[nH]c(=O)c3ccccc23)ccc1F)N1CCN(C(=O)C2CC2)CC1 [Olaparib] (first compound max 1 µM, 7x7, partner max 10 µM) | -0.0552 | -0.0732 | -0.196 | -0.0002 | -0.0938 | -0.0031 | -0.0569 | -0.0271 | -0.0275 | 0.0127 | 0.0083 | -0.0628 | -0.0518 | -0.0146 | -0.0145 | -0.0077 | -0.0391 | -0.0958 | -0.075 | -0.0503
COc1cc2c(cc1OCCCCCOc1cc3c(cc1OC)C(=O)N1C=C(C)C[C@H]1C=N3)N=C[C@@H]1CC(C)=CN1C2=O [SG3199] + O=C(c1cc(Cc2n[nH]c(=O)c3ccccc23)ccc1F)N1CCN(C(=O)C2CC2)CC1 [Olaparib] (first compound max 0.001 µM, 7x7, partner max 10 µM) | -0.0329 | -0.0299 | -0.0371 | -0.0328 | -0.0898 | -0.0342 | -0.0358 | -0.0099 | 0.0263 | -0.0067 | -0.0177 | -0.047 | -0.0069 | -0.0371 | 0.0077 | 0.0701 | -0.0387 | -0.0377 | -0.049 | 0.0217
CCc1c2c(nc3ccc(O)cc13)-c1cc3c(c(=O)n1C2)COC(=O)[C@]3(O)CC [SN-38] + CN(C)CCCOc1ccc(-c2ccc3ncc4c(c3c2)n(C2CCOCC2)c(=O)n4C)cn1 [AZD0156] (first compound max 0.3 µM, 7x7, partner max 1 µM) | -0.0792 | 0.042 | -0.0005 | -0.0374 | -0.0047 | -0.0143 | 0.0639 | -0.0093 | 0.0092 | 0.0344 | -0.0242 | 0.0104 | 0 | -0.0198 | 0.0011 | 0.0187 | -0.079 | 0.0057 | 0.148 | 0.0322
C[C@@H](c1ccc2nccn2c1)n1nnc2ncc(-c3cnn(C)c3)nc21 [Savolitinib] + CC1(C)CCC(CN2CCN(c3ccc(C(=O)NS(=O)(=O)c4ccc(NCC5CCOCC5)c([N+](=O)[O-])c4)c(Oc4cnc5[nH]ccc5c4)c3)CC2)=C(c2ccc(Cl)cc2)C1 [Venetoclax] (first compound max 1 µM, 7x7, partner max 1 µM) | -0.0804 | -0.0614 | -0.0416 | -0.0626 | -0.0569 | -0.0246 | -0.0339 | -0.0192 | -0.0303 | 0.0096 | -0.0048 | 0.0324 | -0.0305 | -0.0411 | -0.0725 | -0.012 | 0.0176 | -0.0529 | -0.105 | -0.0578
C[C@@H](c1ccc2nccn2c1)n1nnc2ncc(-c3cnn(C)c3)nc21 [Savolitinib] + Cc1c2c(nn1C)CSCc1cc(n(C)n1)CSc1cc(c3ccccc3c1)OCCCc1c(C(=O)O)n(C)c3c-2c(Cl)ccc13 [AZD5991] (first compound max 1 µM, 7x7, partner max 1 µM) | -0.0387 | -0.0386 | -0.0451 | -0.0495 | -0.0415 | -0.022 | 0.0178 | -0.0369 | -0.0141 | -0.0133 | -0.0034 | -0.0413 | -0.0491 | -0.0182 | -0.0372 | 0.0013 | -0.0017 | -0.0706 | -0.0142 | 0.0014
Cn1cnc2c(F)c(Nc3ccc(Br)cc3Cl)c(C(=O)NOCCO)cc21 [Selumetinib] + C=CCn1c(=O)c2cnc(Nc3ccc(N4CCN(C)CC4)cc3)nc2n1-c1cccc(C(C)(C)O)n1 [AZD1775] (first compound max 10 µM, partner max 1 µM) | -0.0502 | -0.0183 | -0.0359 | -0.0522 | -0.0888 | 0.0273 | -0.0547 | -0.0424 | 0.025 | -0.0725 | 0.0359 | -0.0124 | -0.052 | -0.0321 | -0.0886 | -0.0198 | -0.0131 | -0.0397 | 0.0076 | -0.0804
Cn1cnc2c(F)c(Nc3ccc(Br)cc3Cl)c(C(=O)NOCCO)cc21 [Selumetinib] + CC(C)n1c(=O)n(C)c2cnc3cc(F)c(-c4ccc(OCCCN5CCCCC5)nc4)cc3c21 [AZD1390] (first compound max 10 µM, 7x7, partner max 0.3 µM) | -0.0388 | -0.0352 | -0.0495 | -0.0574 | -0.0444 | -0.0319 | -0.0312 | -0.0323 | 0.0413 | 0.0253 | -0.0183 | -0.0153 | -0.0424 | -0.0639 | -0.0262 | -0.0001 | 0.0284 | 0.0378 | 0.0186 | -0.0449
Cn1cnc2c(F)c(Nc3ccc(Br)cc3Cl)c(C(=O)NOCCO)cc21 [Selumetinib] + CCN(CCO)CCCOc1ccc2c(Nc3cc(CC(=O)Nc4cccc(F)c4)[nH]n3)ncnc2c1 [AZD2811] (first compound max 10 µM, 7x7, partner max 1 µM) | -0.0065 | -0.0003 | -0.0259 | -0.0512 | -0.038 | 0.0427 | 0.0253 | -0.0464 | 0.0288 | -0.0355 | -0.0915 | 0.0243 | -0.0614 | -0.0501 | -0.0359 | 0.0193 | 0.0086 | -0.0232 | -0.0471 | -0.0264
Cn1cnc2c(F)c(Nc3ccc(Br)cc3Cl)c(C(=O)NOCCO)cc21 [Selumetinib] + C[C@@H]1COCCN1C2=NC(=NC(=C2)C3(CC3)[S@](=N)(=O)C)C4=C5C=CNC5=NC=C4 [AZD6738] (first compound max 10 µM, 7x7, partner max 10 µM) | 0.0117 | 0.0642 | -0.132 | -0.0347 | -0.0084 | 0.0142 | -0.0165 | -0.0612 | 0.152 | -0.0391 | 0.0181 | -0.0263 | -0.0657 | -0.0193 | -0.0871 | -0.0057 | -0.041 | 0.0584 | -0.0289 | -0.0627
CC(=O)Nc1cccc(-n2c(=O)n(C3CC3)c(=O)c3c(Nc4ccc(I)cc4F)n(C)c(=O)c(C)c32)c1 [Trametinib] + Cc1nc(-c2cn3c(n2)-c2ccc(-c4cnn(C(C)(C)C(N)=O)c4)cc2OCC3)n(C(C)C)n1 [Taselisib] (first compound max 1 µM, 7x7, partner max 10 µM) | 0.0676 | 0.13 | 0.0117 | 0.159 | 0.0474 | 0.15 | 0.164 | 0.0939 | 0.0909 | 0.184 | 0.0528 | 0.165 | 0.101 | 0.0665 | 0.0519 | 0.139 | 0.0881 | 0.124 | 0.129 | 0.0654
CC1(C)CCC(CN2CCN(c3ccc(C(=O)NS(=O)(=O)c4ccc(NCC5CCOCC5)c([N+](=O)[O-])c4)c(Oc4cnc5[nH]ccc5c4)c3)CC2)=C(c2ccc(Cl)cc2)C1 [Venetoclax] + C1CN(CCC1(C(=O)N[C@@H](CCO)C2=CC=C(C=C2)Cl)N)C3=NC=NC4=C3C=CN4 [Capivasertib] (first compound max 1 µM, 7x7, partner max 3 µM) | -0.0198 | -0.0699 | -0.0293 | -0.0038 | -0.112 | -0.0409 | -0.0275 | 0.0111 | -0.0297 | -0.0104 | -0.0078 | 0.0534 | 0.0301 | -0.0707 | -0.0573 | -0.0383 | -0.0739 | -0.0469 | -0.0569 | -0.0427
CC1(C)CCC(CN2CCN(c3ccc(C(=O)NS(=O)(=O)c4ccc(NCC5CCOCC5)c([N+](=O)[O-])c4)c(Oc4cnc5[nH]ccc5c4)c3)CC2)=C(c2ccc(Cl)cc2)C1 [Venetoclax] + C=CCn1c(=O)c2cnc(Nc3ccc(N4CCN(C)CC4)cc3)nc2n1-c1cccc(C(C)(C)O)n1 [AZD1775] (first compound max 1 µM, partner max 1 µM) | -0.0309 | -0.0413 | 0.0294 | 0.0144 | -0.013 | 0.0452 | -0.0515 | 0.0623 | -0.112 | 0.0776 | -0.018 | 0.0966 | 0.0103 | -0.0553 | -0.0466 | -0.0265 | 0.0035 | -0.0729 | -0.0071 | -0.0277
